Experimental data as given in ChEMBL document CHEMBL1126278, “New neplanocin analogues. 1. Synthesis of 6'-modified neplanocin A derivatives as broad-spectrum antiviral agents” (J Med Chem, 1992).
Values after ≈ are worked out from the molar mass of the structure shown.

Experiments:
[1] = tested on: MDCK; assay: cells; details: Canis lupus familiaris
[2] = tested on: Vero; assay: (§1) Inhibitory effect on replication of RNA virus cell morphology in Vero cell line.; assay type: functional, cell-based; details: Chlorocebus sabaeus
[3] = tested on: MT4; assay: Inhibitory effect on replication of RNA virus cell growth in MT-4 cell line.; assay type: functional, cell-based; details: Homo sapiens
[4] = tested on: Vero; assay: Inhibitory effect on replication of RNA virus TV in Vero cell line.; assay type: functional, cell-based; details: Chlorocebus sabaeus
[5] = tested on: HEL; assay: Inhibitory effect on replication of DNA virus CMV (Davis) on HEL cell line.; assay type: functional, cell-based; details: Homo sapiens
[6] = tested on: HeLa; assay: Inhibitory effect on replication of RNA virus RSV in HeLa cell line; assay type: functional, cell-based; details: Homo sapiens
[7] = tested on: HEL; assay: Inhibitory effect on replication of DNA virus Cell growth on HEL cell line.; assay type: functional, cell-based; details: Homo sapiens
[8] = tested on: PRK; assay: Inhibitory effect on replication of RNA virus VSV in PRK cell line.; assay type: functional, cell-based; details: Oryctolagus cuniculus
[9] = tested on: HeLa; assay: Inhibitory effect on replication of RNA virus coxsB-4 in HeLa cell line.; assay type: functional, cell-based; details: Homo sapiens
[10] = tested on: Vero; assay: Inhibitory effect on replication of RNA virus reo-1 in Vero cell line.; assay type: functional, cell-based; details: Chlorocebus sabaeus
[11] = tested on: HEL; assay: Inhibitory effect on replication of DNA virus VZV (Oka) on HEL cell line.; assay type: functional, cell-based; details: Homo sapiens
[12] = tested on: MDCK; assay: cells; details: Canis lupus familiaris; remark: listed apart in the source
[13] = tested on: MDCK; assay: Inhibitory effect on replication of RNA virus cell morphology in MDCK cell line.; assay type: functional, cell-based; details: Canis lupus familiaris
[14] = tested on: MT4; assay: Inhibitory effect on replication of RNA virus HIV-1 in MT-4 cell line.; assay type: functional, cell-based; details: Homo sapiens
[15] = tested on: HEL; assay: Inhibitory effect on replication of DNA virus CMV (AD-169) on HEL cell line.; assay type: functional, cell-based; details: Homo sapiens
[16] = tested on: HEL; assay: Inhibitory effect on replication of DNA virus TK-VZV (07-1) on HEL cell line.; assay type: functional, cell-based; details: Homo sapiens
[17] = tested on: Vero; assay: Inhibitory effect on replication of RNA virus JV in Vero cell line.; assay type: functional, cell-based; details: Chlorocebus sabaeus
[18] = tested on: PRK; assay: Inhibitory effect on replication of RNA virus cell morphology in PRK cell line.; assay type: functional, cell-based; details: Oryctolagus cuniculus
[19] = tested on: Vero; assay: Inhibitory effect on replication of RNA virus PV-3 in Vero cell line.; assay type: functional, cell-based; details: Chlorocebus sabaeus
[20] = Inhibitory effect on replication of DNA virus HSV-1 (KOS) in PRK cell line.; assay type: functional, cell-based; details: Oryctolagus cuniculus
[21] = tested on: PRK; assay: Inhibitory effect on replication of DNA virus Cell morphology on PRK cell line; assay type: functional, cell-based; details: Oryctolagus cuniculus
[22] = tested on: HeLa; assay: cells; details: Homo sapiens
[23] = tested on: Vero; assay: Inhibitory effect on replication of RNA virus SFV in Vero cell line; assay type: functional, cell-based; details: Chlorocebus sabaeus
[24] = tested on: Vero; assay: Inhibitory effect on replication of RNA virus coxsB-4 in Vero cell line; assay type: functional, cell-based; details: Chlorocebus sabaeus
[25] = tested on: Vero; assay: Inhibitory effect on replication of RNA virus protein synthesis in Vero cell line.; assay type: functional, cell-based; details: Chlorocebus sabaeus
[26] = tested on: Vero; assay: Inhibitory effect on replication of RNA virus SV in Vero cell line.; assay type: functional, cell-based; details: Chlorocebus sabaeus
[27] = tested on: Vero; assay: Inhibitory effect on replication of virus protein synthesis in Vero cell line.; assay type: functional, cell-based; details: Chlorocebus sabaeus
[28] = tested on: Vero; assay: Inhibitory effect on replication of RNA virus measles on Vero cell line.; assay type: functional, cell-based; details: Chlorocebus sabaeus
[29] = tested on: HEL; assay: Inhibitory effect on replication of DNA virus TK-VZV (YSR) on HEL cell line.; assay type: functional, cell-based; details: Homo sapiens
[30] = Inhibitory effect on replication of DNA virus HSV-2 (G) in PRK cell line.; assay type: functional, cell-based; details: Oryctolagus cuniculus
[31] = tested on: HEL; assay: Inhibitory effect on replication of DNA virus VZV (YS) on HEL cell line.; assay type: functional, cell-based; details: Homo sapiens
[32] = tested on: MT4; assay: Inhibitory effect on replication of RNA virus HIV-2 in MT-4 cell line.; assay type: functional, cell-based; details: Homo sapiens
[33] = tested on: HeLa; assay: Inhibitory effect on replication of RNA virus VSV in HeLa cell line.; assay type: functional, cell-based; details: Homo sapiens
[34] = tested on: HeLa; assay: Inhibitory effect on replication of RNA virus cell morphology in HeLa cell line.; assay type: functional, cell-based; details: Homo sapiens
[35] = tested on: PRK; assay: Inhibitory effect on replication of DNA virus VV on PRK cell line.; assay type: functional, cell-based; details: Oryctolagus cuniculus
[36] = tested on: Vero; assay: Inhibitory effect on replication of RNA virus RNA synthesis in Vero cell line.; assay type: functional, cell-based; details: Chlorocebus sabaeus
[37] = tested on: ESM; assay: Inhibitory effect on replication of DNA virus TK-HSV-1 (B2006) on ESM cell line.; assay type: functional, cell-based
[38] = tested on: ESM; assay: Inhibitory effect on replication of RNA virus cell morphology in ESM cell line.; assay type: functional, cell-based
[39] = tested on: ESM; assay: Inhibitory effect on replication of DNA virus VV on ESM cell line.; assay type: functional, cell-based
[40] = tested on: ESM; assay: Inhibitory effect on replication of DNA virus HSV-1 (KOS) in ESM cell line; assay type: functional, cell-based
[41] = tested on: ESM; assay: Inhibitory effect on replication of DNA virus HSV-2 (G) in ESM cell line; assay type: functional, cell-based
[42] = tested on: ESM; assay: Inhibitory effect on replication of DNA virus TK-HSV-1 (VMW 1837) on ESM cell line.; assay type: functional, cell-based
[43] = tested on: ESM; assay: Inhibitory effect on replication of DNA virus Cell morphology on ESM cell line; assay type: functional, cell-based
[44] = tested on: Vero; assay: as §1; assay type: functional, cell-based, Homo sapiens; details: Chlorocebus sabaeus
[45] = tested on: PRK; assay: Inhibitory effect on replication of virus Cell morphology on PRK cell line; assay type: functional, cell-based; details: Oryctolagus cuniculus

| SMILES | IC50 [1] [µg/mL] | IC50 [3] [µg/mL] | IC50 [4] [µg/mL] | IC50 [5] [µg/mL] | IC50 [6] [µg/mL] | IC50 [8] [µg/mL] | IC50 [9] [µg/mL] | IC50 [10] [µg/mL] | IC50 [11] [µg/mL] | IC50 [12] [µg/mL] | IC50 [13] [µg/mL] | IC50 [14] [µg/mL] | IC50 [15] [µg/mL] | IC50 [16] [µg/mL] | IC50 [17] [µg/mL] | IC50 [18] [µg/mL] | IC50 [19] [µg/mL] | IC50 [20] [µg/mL] | IC50 [22] [µg/mL] | IC50 [23] [µg/mL] | also measured |
| --- | --- | --- | --- | --- | --- | --- | --- | --- | --- | --- | --- | --- | --- | --- | --- | --- | --- | --- | --- | --- | --- |
| Nc1ncnc2c1ncn2[C@@H]1C=C(CCl)[C@@H](O)[C@H]1O | > 10 | 0.2 (≈ 0.71 µM) | 2 (≈ 7.1 µM) | 0.7 (≈ 2.48 µM) | 0.8 (≈ 2.84 µM) | 0.7 (≈ 2.48 µM) | > 40 | 0.7 (≈ 2.48 µM) | 2.5 (≈ 8.87 µM) | > 10 | 10 (≈ 35.5 µM) | > 0.06 | 2 (≈ 7.1 µM) | 1 (≈ 3.55 µM) | 2 (≈ 7.1 µM) | 40 (≈ 142 µM) | 7 (≈ 24.8 µM) | > 20 | > 40 | > 40 | IC50 [2]: 40 µg/mL (≈ 142 µM); IC50 [7]: 9 µg/mL (≈ 31.9 µM); IC50 [21]: 40 µg/mL (≈ 142 µM); IC50 [24]: > 40 µg/mL; IC50 [25]: 0.8 µg/mL (≈ 2.84 µM); IC50 [26]: > 40 µg/mL; IC50 [27]: 5 µg/mL (≈ 17.7 µM); IC50 [28]: 0.8 µg/mL (≈ 2.84 µM); IC50 [29]: 2 µg/mL (≈ 7.1 µM); IC50 [30]: > 20 µg/mL; IC50 [31]: 2 µg/mL (≈ 7.1 µM) |
| Nc1ncnc2c1ncn2[C@@H]1C=C(CF)[C@@H](O)[C@H]1O | > 100 | 3 (≈ 11.3 µM) | 0.4 (≈ 1.51 µM) | 2.5 (≈ 9.43 µM) | 10 (≈ 37.7 µM) | 0.2 (≈ 0.754 µM) | > 200 | 2 (≈ 7.54 µM) | 70 (≈ 264 µM) | > 100 | > 100 | > 1.5 | 2.5 (≈ 9.43 µM) | 20 (≈ 75.4 µM) | 0.4 (≈ 1.51 µM) | > 400 | 7 (≈ 26.4 µM) | > 400 | > 200 | 200 (≈ 754 µM) | IC50 [2]: 40 µg/mL (≈ 151 µM); IC50 [32]: > 1.5 µg/mL; IC50 [33]: 2 µg/mL (≈ 7.54 µM); IC50 [34]: > 200 µg/mL; IC50 [35]: 2 µg/mL (≈ 7.54 µM); IC50 [36]: 5 µg/mL (≈ 18.9 µM); IC50 [21]: > 400 µg/mL; IC50 [24]: > 200 µg/mL; IC50 [25]: 65 µg/mL (≈ 245 µM); IC50 [26]: 7 µg/mL (≈ 26.4 µM); IC50 [28]: 10 µg/mL (≈ 37.7 µM); IC50 [29]: 20 µg/mL (≈ 75.4 µM); IC50 [30]: > 400 µg/mL; IC50 [31]: 150 µg/mL (≈ 566 µM) |
| C[C@H](O)C1=C[C@@H](n2cnc3c(N)ncnc32)[C@H](O)[C@@H]1O | > 100 | > 100 | 55 (≈ 198 µM) | 9 (≈ 32.5 µM) | > 100 | 70 (≈ 252 µM) | > 400 | 40 (≈ 144 µM) | 100 (≈ 361 µM) | > 100 | > 100 | > 100 | 15 (≈ 54.1 µM) | 76 (≈ 274 µM) | 45 (≈ 162 µM) | > 400 | 100 (≈ 361 µM) | > 400 | > 400 | > 400 | IC50 [2]: > 400 µg/mL; IC50 [37]: > 400 µg/mL; IC50 [38]: > 400 µg/mL; IC50 [7]: 132 µg/mL (≈ 476 µM); IC50 [39]: 40 µg/mL (≈ 144 µM); IC50 [40]: > 400 µg/mL; IC50 [32]: > 100 µg/mL; IC50 [34]: > 400 µg/mL; IC50 [41]: > 400 µg/mL; IC50 [35]: 70 µg/mL (≈ 252 µM); IC50 [36]: 36 µg/mL (≈ 130 µM); IC50 [21]: > 400 µg/mL; IC50 [42]: > 400 µg/mL; IC50 [24]: > 200 µg/mL; IC50 [25]: > 190 µg/mL; IC50 [26]: 150 µg/mL (≈ 541 µM); IC50 [43]: > 400 µg/mL; IC50 [28]: > 100 µg/mL; IC50 [29]: 39 µg/mL (≈ 141 µM); IC50 [30]: > 200 µg/mL |
| CSCC1=C[C@@H](n2cnc3c(N)ncnc32)[C@H](O)[C@@H]1O | > 100 | 60 (≈ 205 µM) | 40 (≈ 136 µM) | 1 (≈ 3.41 µM) | > 40 | 70 (≈ 239 µM) | > 200 | 40 (≈ 136 µM) | 2.5 (≈ 8.52 µM) | > 100 | > 100 | > 40 | 1.5 (≈ 5.11 µM) | 2 (≈ 6.82 µM) | 40 (≈ 136 µM) | > 400 | > 200 | > 400 | > 200 | > 400 | IC50 [7]: 9 µg/mL (≈ 30.7 µM); IC50 [32]: > 40 µg/mL; IC50 [33]: > 200 µg/mL; IC50 [34]: > 400 µg/mL; IC50 [35]: 70 µg/mL (≈ 239 µM); IC50 [24]: > 200 µg/mL; IC50 [26]: > 200 µg/mL; IC50 [44]: > 400 µg/mL; IC50 [45]: > 400 µg/mL; IC50 [28]: 40 µg/mL (≈ 136 µM); IC50 [29]: 5 µg/mL (≈ 17 µM); IC50 [30]: > 400 µg/mL; IC50 [31]: 2 µg/mL (≈ 6.82 µM) |
